Tests used:
[1] = Liver microsomal clearance test, human; type: in vitro ADME; conditions: Human liver microsomes, 0.5 mg/mL, NADPH
Procedure: (§1) Test 3 Liver Microsomal Clearance Test
(§2) 1. Prepare 0.5 mg/mL liver microsome diluent containing K-butter and MgCl2:
(§3) 2.1 Take 356 μL of the liver microsome diluent prepared above and add it to the preset wells of the incubation plate, the number of multiple wells n=1, mark it as the incubation plate.
(§4) 2.2 Take 4 μL of the positive control compound Verapamil (50 μM) and the working solution of the test compound (200 μM) into the above incubation plate containing 356 μL of liver microsome diluent, and mix well (The dilution solvent from the stock solution to the working solution is a mixed solvent of acetonitrile: methanol: water=1:1:2, and the final concentration of DMSO is ≤0.5%),
(§5) 2.3 Place the incubation plate in a 37° C. thermostatic oscillator (at shaking speed of 100 rpm) for pre-incubation with 10 min.
(§6) 2.4 Add 40 μL of 10 mM NADPH (add 40 μL of K-buffer to the wells without NADPH) to each reaction well to start the reaction and start timing.
(§7) 3. Sample collection and treatment:
(§8) 3.1 After adding NADPH to start the reaction, immediately take out 50 μL of the sample and add it to the precipitation plate pre-added with 400 μL of stop solution, and shake on an oscillator at 600 rpm for 5 min at room temperature as a 0 min sample.
(§9) 3.2 At the predetermined time points of 5 min, 15 min and 45 min, take out 50 μL of sample from the incubation plate and add it to the precipitation plate. The subsequent steps were the same as the treatment of 0 min sample. 3.3 After balancing, centrifuge above precipitation plate at 3200 rpm for 10 min at 4° C.
(§10) 3.4 Take 50 μL of the supernatant after centrifugation and add it to pre-added 20% acetonitrile water at appropriate proportion, shake on an oscillator at 600 rpm for 2 min at room temperature, mix well, and put it into the LC-MS/MS sampler for sample injection.
(§11) Analysis of Experimental Data
1. […]

[2] = Liver microsomal clearance test, dog; type: in vitro ADME; conditions: Dog liver microsomes, 0.5 mg/mL, NADPH
Procedure: as §1, §2, §3, §4, §5, §6, §7, §8, §9, §10, §11
1. […]

[3] = Liver microsomal clearance test, monkey; type: in vitro ADME; conditions: Monkey liver microsomes, 0.5 mg/mL, NADPH
Procedure: as §1, §2, §3, §4, §5, §6, §7, §8, §9, §10, §11
1. […]

[4] = test system: A431 EGFR wild-type cell line; assay: A431 EGFR wild-type cell proliferation assay (CellTiter Glo, 72 h); type: cell-based; conditions: Homo sapiens, A-431, CTG, read-out: A431 EGFR WT IC50
Procedure: (§12) Cell line: Ba/F3 cells with stable overexpression of Δ19del/T790M/C797S or L858R/T790M/C797S mutant genes, named Ba/F3-Δ19del/T790M/C797S and Ba/F3-L858R/T790M/C797S, and A431 EGFR wild-type cell line.
(§13) RPMI 1640 and 10% FBS and 1% PS; _EM, 10% PBS and 1% PS
(§14) a) Dilute the test compound (20 mM stock solution) to 10 mM with 100% DMSO as the starting concentration, and then serially dilute 3 times with a “9+0” concentration in 96-well dilution plate (Cat #P-05525, Labcyte);
(§15) b) Dilute compound solution thereof to 1:100 in medium to prepare 10-fold working solution;
(§16) a) Centrifuge the growth cells in logarithmic phase at 1000 rpm for 5 minutes, resuspend the cells in culture medium, and then count the cells;
(§17) b) Inoculate the cells into a 96-well cell culture plate with a density of 2000 cells/well;
(§18) a) The compound prepared in Step 2 was added to a cell plate with 15 μL per well at final concentrations of 1000, 333, 111.1, 37, 12.3, 4.1, 1.4, 0.5, 0.2, and 0 nM. The final concentration of DMSO was 0.1%. The blank control well is with medium (0.1% DMSO).
(§19) b) Incubate cells in an incubatorother 72 hours;
(§20) a) Take out the 96-well cell culture plate and add 50 μl CTG reagent (CellTiter Glo kit, promega, Cat #G7573);
(§21) b) Shake the plate for 2 minutes and let cool at room temperature for 10 minutes,
(§22) c) Read luminous signal value with Perkin Elmer reader.
as §11
(§23) The data were analyzed by GraphPad Prism 6.0 software to obtain the fitting curve of compound activity.
(§24) Fining compound IC50 from nonlinear regression equation:
(§25) Y=Min+(Max−Min)/(1+10^((LogIC50−X)*slope));
(§26) X: Logarithm of compound concentration; Y: luminous signal
(§27) As illustrated in examples, IC50 value is within the following range for the compound of the present invention: “A” represents “IC50≤50 nM”; “B” represents “50 nM<IC50<100 nM”.

Ba/F3-Δ19del/T790M/C797S = Ba/F3-Δ19del/T790M/C797S (Homo sapiens, UniProt P00533, T790M/C797S, cells depend on it, form not given); assay: Ba/F3-Δ19del/T790M/C797S cell proliferation assay (CellTiter Glo, 72 h); type: cell-based; conditions: CTG, numeric values, read-out: BaF3 Δ19del/T790M/C797S IC50
Procedure: as §12, §13, §14, §15, §16, §17, §18, §19, §20, §21, §22, §11, §23, §24, §25, §26, §27

[5] = Liver microsomal clearance test, mice; type: in vitro ADME; conditions: Mice liver microsomes, 0.5 mg/mL, NADPH
Procedure: as §1, §2, §3, §4, §5, §6, §7, §8, §9, §10, §11
1. […]

hERG protein = biological target: T1, hERG protein (Homo sapiens, UniProt Q12809); assay: hERG IC50 test (tracer/membranes fluorescence polarization); type: binding; conditions: hERG membranes and tracer, read-out: IC50 results of hERG protein to compound
T1 construct: purchased
Procedure: 1. Thaw hERG kits (Tracer, E-4031 and Membranes) at room temperature;
2. Add 10 μL of positive compound E-4031 and 10 μL of test compound (10 mM) to 384 well plate (Corning, Art. No. 3658);
3. E-4031 is sequentially 5-fold diluted by pure water (10 concentration points in total), and the test compound is sequentially 5-fold diluted by DMSO (10 concentration points in total).
4. Take 1 μL of all gradient concentrations and add them in parallel to the wells containing 24 μL Assay buffer, and dilute 25 times (take 3 μL of the maximum concentration of E-4031 and add it to 72 μL Assay buffer).
5. Add 10 μL Membranes to another black 384-well plate (Coming, Art.4511).
6. Take 5 μL of 25-fold diluted working solution of positive and test compounds, and add it to above-mentioned plate with 10 μL Membranes, 2 copies at each concentration.
7. Negative control: Add 5 μL Assay buffer to the well with 10 μL Membranes, 8 copies in parallel;
8. Positive control: Add 5 μL E-4031 (120 μM) to the well with 10 μL Membranes, 8 copies in parallel;
9. […]
10. Before measuring the fluorescence polarization, cover the analysis plate to protect the reagents from light and evaporation, and incubate at room temperature (20-25° C.) for 2 hours.
11. Read fluorescence polarization in PerkinElmer EnVision® Multilabel after incubation; […]

[6] = Liver microsomal clearance test, rat; type: in vitro ADME; conditions: Rat liver microsomes, 0.5 mg/mL, NADPH
Procedure: as §1, §2, §3, §4, §5, §6, §7, §8, §9, §10, §11
1. […]

Ba/F3-L858R/T790M/C797S = Ba/F3-L858R/T790M/C797S (Homo sapiens, UniProt P00533, T790M/C797S/L858R, cells depend on it); assay: Ba/F3-L858R/T790M/C797S cell proliferation assay (CellTiter Glo, 72 h); type: cell-based; conditions: CTG, numeric values, read-out: BaF3 L858R/T790M/C797S IC50
Procedure: as §12, §13, §14, §15, §16, §17, §18, §19, §20, §21, §22, §11, §23, §24, §25, §26, §27

EGFR Δ19del/T790M/C797S = EGFR Δ19del/T790M/C797S (Homo sapiens, UniProt P00533, T790M/C797S, form not given); assay: EGFR Δ19del/T790M/C797S kinase test (mobility shift, Caliper EZ Reader); type: biochemical; conditions: kinase enzymatic activity, class symbols
Procedure: Mobility variation analysis was performed to determine the affinity of the compound for EGFRΔ19del/T790M/C797S. The enzymatic reaction scheme is as follows:
1. Prepare 1* kinase buffer as follows:
2. Preparation of compound concentration gradient: The test compound was tested with an initial concentration of 3000 nM or 100 nM, diluted in a 384 source plate to a 100% DMSO solution with 100-fold final concentration, and the compound is 3-fold diluted with Precision to 10 concentrations. A dispenser Echo 550 was used to transfer 250 nL 100-fold final concentration of the compound to the target plate OptiPlate-384F.
3. Prepare 2.5-fold final concentration of kinase solution with 1×Kinase buffer;
4. Add 10 μL of 2.5-fold final concentration of kinase solution to the compound well and the positive control well; add 10 μL of 1×Kinase buffer to the negative control well.
5. Centrifuge at 1000 rpm for 30 seconds, shake the reaction plate for well mixation, and then incubate at room temperature for 10 minutes.
6. Prepare a mixture of ATP and Kinase substrate at 5/3-fold final concentration with 1×Kinase buffer.
7. Add 15 μL mixture of 5/3-fold final concentration of ATP and substrate to start reaction.
8. Centrifuge the 384-well plate at 1000 rpm for 30 seconds, shake it well and then incubate it at room temperature for corresponding time.
9. Add 30 μL of stop detection solution to stop the kinase reaction, centrifuge at 1000 rpm for 30 seconds, shake it well.
10. Read conversion rate with Caliper EZ Reader.
% Inhibition=((Conversion%_max−Conversion%_sample)/(Conversion%_max−Conversion%_min))*100
Wherein: Conversion%_sample is the sample conversion rate reading; Conversion%_min: Mean value of negative control wells, representing the conversion rate reading of wells without enzymatic activity; Conversion%_max: Mean value of positive control wells, representing the conversion rate reading of wells without compound inhibition.
The dose-effect curve was fitted with concentration log value as X-axis and percentage inhibition rate as Y-axis. Log (inhibitor) vs. Response—Variable Slope of GraphPad Prism 5 was used to fit the dose-effect curve to obtain IC50 value of enzymatic activity for each compound.
The calculation formula is as Y=Bottom (Top−Bottom)/(1+10^((LogIC50−X)*HillSlope)).
As illustrated in examples, IC50 value is within the following range for the compound of the present invention: “A” represents “IC50≤1nM”; “B” represents “1 nM<IC50≤100nM”.

Chain of Ba/F3-L858R/T790M/C797S (P00533 whole entry T790M/C797S/L858R): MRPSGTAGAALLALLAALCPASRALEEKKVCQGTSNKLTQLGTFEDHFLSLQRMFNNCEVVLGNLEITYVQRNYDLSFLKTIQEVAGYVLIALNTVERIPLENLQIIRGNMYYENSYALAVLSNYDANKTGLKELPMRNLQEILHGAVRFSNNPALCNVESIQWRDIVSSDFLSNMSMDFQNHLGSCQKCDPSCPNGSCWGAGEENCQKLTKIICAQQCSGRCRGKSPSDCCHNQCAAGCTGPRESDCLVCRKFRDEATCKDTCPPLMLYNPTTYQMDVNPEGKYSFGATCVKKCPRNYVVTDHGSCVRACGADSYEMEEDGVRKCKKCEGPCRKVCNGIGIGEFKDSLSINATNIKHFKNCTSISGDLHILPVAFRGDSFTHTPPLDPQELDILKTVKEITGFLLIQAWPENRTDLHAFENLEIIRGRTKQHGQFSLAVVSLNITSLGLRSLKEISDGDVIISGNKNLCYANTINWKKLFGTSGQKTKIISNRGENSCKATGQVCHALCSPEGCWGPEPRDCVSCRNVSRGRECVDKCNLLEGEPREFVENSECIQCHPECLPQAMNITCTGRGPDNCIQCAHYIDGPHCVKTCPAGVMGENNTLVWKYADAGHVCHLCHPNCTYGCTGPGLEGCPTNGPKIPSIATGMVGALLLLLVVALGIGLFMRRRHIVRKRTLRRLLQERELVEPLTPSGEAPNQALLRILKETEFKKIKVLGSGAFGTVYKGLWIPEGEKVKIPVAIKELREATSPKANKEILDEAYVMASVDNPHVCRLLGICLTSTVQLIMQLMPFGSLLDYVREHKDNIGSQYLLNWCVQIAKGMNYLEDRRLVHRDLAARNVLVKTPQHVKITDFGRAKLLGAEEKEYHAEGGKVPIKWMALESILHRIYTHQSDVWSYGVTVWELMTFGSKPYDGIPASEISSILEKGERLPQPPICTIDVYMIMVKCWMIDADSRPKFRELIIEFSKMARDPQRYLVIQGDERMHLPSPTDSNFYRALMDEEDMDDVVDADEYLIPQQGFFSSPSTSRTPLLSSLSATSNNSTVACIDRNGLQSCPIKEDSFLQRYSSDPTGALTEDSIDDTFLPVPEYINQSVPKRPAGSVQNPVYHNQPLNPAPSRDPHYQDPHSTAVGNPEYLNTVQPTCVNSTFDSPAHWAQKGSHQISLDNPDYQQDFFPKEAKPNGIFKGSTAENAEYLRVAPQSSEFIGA
Chain of Ba/F3-Δ19del/T790M/C797S (P00533 with tags, fused parts or gaps DEL746-750/T790M/C797S, form open): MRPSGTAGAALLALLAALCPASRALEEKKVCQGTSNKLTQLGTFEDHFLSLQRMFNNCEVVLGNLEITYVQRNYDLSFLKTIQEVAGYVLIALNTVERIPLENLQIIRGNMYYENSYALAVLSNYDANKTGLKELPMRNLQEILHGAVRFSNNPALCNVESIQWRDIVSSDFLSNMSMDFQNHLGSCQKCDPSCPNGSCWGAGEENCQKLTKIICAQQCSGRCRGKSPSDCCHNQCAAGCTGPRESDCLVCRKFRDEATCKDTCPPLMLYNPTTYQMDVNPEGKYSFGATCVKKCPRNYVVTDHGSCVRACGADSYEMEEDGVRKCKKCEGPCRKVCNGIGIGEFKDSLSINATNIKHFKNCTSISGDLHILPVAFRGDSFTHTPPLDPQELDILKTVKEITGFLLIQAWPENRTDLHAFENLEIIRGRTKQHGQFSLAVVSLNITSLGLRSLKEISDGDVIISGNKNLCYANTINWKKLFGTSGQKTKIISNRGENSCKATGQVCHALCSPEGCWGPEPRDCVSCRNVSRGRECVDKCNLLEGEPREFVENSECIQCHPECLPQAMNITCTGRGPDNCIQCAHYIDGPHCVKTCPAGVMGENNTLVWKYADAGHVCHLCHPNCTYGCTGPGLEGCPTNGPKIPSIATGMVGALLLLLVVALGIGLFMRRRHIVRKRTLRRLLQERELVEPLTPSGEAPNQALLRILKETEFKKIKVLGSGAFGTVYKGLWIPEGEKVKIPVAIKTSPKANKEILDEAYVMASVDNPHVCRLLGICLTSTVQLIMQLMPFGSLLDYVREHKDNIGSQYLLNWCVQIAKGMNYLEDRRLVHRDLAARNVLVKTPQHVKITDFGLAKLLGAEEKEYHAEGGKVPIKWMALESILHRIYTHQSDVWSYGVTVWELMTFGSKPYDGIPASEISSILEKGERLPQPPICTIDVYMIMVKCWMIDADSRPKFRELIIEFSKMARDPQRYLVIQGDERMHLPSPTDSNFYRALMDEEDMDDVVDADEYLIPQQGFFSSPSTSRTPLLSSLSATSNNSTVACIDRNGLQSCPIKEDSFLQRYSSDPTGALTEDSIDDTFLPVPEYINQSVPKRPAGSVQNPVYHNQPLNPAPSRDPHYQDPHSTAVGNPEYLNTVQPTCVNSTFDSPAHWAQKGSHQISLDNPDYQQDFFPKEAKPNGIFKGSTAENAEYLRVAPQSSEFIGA
T1 sequence (Q12809 whole entry): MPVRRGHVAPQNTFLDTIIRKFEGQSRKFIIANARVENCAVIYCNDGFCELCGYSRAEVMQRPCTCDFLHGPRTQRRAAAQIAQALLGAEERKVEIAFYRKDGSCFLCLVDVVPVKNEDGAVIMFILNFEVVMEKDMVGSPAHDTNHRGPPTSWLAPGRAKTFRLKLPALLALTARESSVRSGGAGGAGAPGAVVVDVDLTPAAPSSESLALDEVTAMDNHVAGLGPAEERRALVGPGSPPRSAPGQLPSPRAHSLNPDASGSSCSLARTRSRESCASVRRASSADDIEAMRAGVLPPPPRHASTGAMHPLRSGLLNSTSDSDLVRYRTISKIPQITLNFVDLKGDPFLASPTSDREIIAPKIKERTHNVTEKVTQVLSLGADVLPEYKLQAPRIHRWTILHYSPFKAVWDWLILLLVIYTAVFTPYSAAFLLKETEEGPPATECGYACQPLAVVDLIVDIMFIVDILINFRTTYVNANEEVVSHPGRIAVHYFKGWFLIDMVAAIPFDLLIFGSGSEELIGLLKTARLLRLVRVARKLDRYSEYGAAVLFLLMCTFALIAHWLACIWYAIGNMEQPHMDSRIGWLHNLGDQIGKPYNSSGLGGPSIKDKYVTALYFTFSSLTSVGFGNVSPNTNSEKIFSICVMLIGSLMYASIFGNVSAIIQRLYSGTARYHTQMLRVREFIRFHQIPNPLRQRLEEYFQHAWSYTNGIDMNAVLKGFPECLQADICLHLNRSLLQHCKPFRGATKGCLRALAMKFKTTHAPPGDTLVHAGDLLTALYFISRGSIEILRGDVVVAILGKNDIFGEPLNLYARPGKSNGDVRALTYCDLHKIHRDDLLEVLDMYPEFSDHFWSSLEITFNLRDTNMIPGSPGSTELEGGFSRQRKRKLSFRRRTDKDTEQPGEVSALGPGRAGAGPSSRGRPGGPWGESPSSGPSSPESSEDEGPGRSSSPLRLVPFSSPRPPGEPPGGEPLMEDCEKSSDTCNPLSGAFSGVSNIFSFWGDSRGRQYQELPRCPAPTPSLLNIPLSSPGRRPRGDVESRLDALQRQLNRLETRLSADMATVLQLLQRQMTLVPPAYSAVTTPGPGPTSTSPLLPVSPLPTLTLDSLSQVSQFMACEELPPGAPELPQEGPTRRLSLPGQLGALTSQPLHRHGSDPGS
Chain of EGFR Δ19del/T790M/C797S (P00533 with tags, fused parts or gaps DEL746-750/T790M/C797S, form open): as the sequence (P00533 with tags, fused parts or gaps DEL746-750/T790M/C797S, form open) above

Compound: COc1cc(N2CCC(N3CCN(C)CC3)CC2)c(C)cc1Nc1ncc(Br)c(Nc2ccc3nccnc3c2P(C)(C)=O)n1 [A, reference compound]
- Instrinsic clearance of liver microsomal protein, CLint [1]: 17.4 μL/min/mg proteins
- Instrinsic clearance of liver microsomal protein, CLint [2]: 15.6 μL/min/mg proteins
- Instrinsic clearance of liver microsomal protein, CLint [3]: 65.4 μL/min/mg proteins
- IC50 [4]: 375 nM
- GI50 (Ba/F3-Δ19del/T790M/C797S): 22 nM
- Instrinsic clearance of liver microsomal protein, CLint [5]: 16.4 μL/min/mg proteins
- IC50 (hERG protein): 13500 nM
- Instrinsic clearance of liver microsomal protein, CLint [6]: 22 μL/min/mg proteins
- GI50 (Ba/F3-L858R/T790M/C797S): 16.7 nM

Compound: COc1cc(N2CCC(N3CCCCC3)CC2)c(-c2cnn(C)c2)cc1Nc1ncc(Cl)c(Nc2ccc3nccnc3c2P(C)(C)=O)n1 [Compound 5, (6-((2-((4-([1,4′-Dipiperidine]-1′-yl)-2-methoxy-5-(1-methyl-1H-pyrazole-4-yl)phenyl)amino)-5-chloropyrimidin-4-yl)amino)quinoxalin-5-yl)dimethylphosphine oxide]
- Instrinsic clearance of liver microsomal protein, CLint [1]: 15.4 μL/min/mg proteins
- Instrinsic clearance of liver microsomal protein, CLint [2]: 25.8 μL/min/mg proteins
- Instrinsic clearance of liver microsomal protein, CLint [3]: 43.2 μL/min/mg proteins
- IC50 [4]: 114 nM
- GI50 (Ba/F3-Δ19del/T790M/C797S): 3 nM
- IC50 (EGFR Δ19del/T790M/C797S): ≤ 1 nM
- Instrinsic clearance of liver microsomal protein, CLint [5]: 11.2 μL/min/mg proteins
- Instrinsic clearance of liver microsomal protein, CLint [6]: 0.8 μL/min/mg proteins
- GI50 (Ba/F3-L858R/T790M/C797S): 6.5 nM
